ChEMBL document CHEMBL4706683 (J Med Chem, 2021)
Calls of active or inactive are those of the source. No cut-off for these calls is given here.

How the values were obtained:
Plasmodium falciparum [1] = assay: Antiplasmodial activity against schizont stage Plasmodium falciparum 3D7 infected in human erythrocytes assessed as reduction in parasitemia at 10 times IC50 incubated for 12 hrs followed by compound washout and measured at 96 hrs post infection by […] analysis; format: functional, organism-based; settings: Erythrocyte
Plasmodium falciparum [2] = assay: Inhibition of Plasmodium falciparum HDAC assessed as hyperacetylation of histone H3 at 20 times IC50 incubated for 4 hrs by Western blot analysis
[3] = target: Histone deacetylase 3/Nuclear receptor corepressor 2 (HDAC3/NCoR2) (Homo sapiens, UniProt O15379); assay: Inhibition of human C-terminal His-tagged HDAC3/N-terminal GST-tagged NCOR2 expressed in baculovirus infected Sf9 cells using Ac-peptide as substrate preincubated for 15 mins followed by substrate and trypsin addition and further incubated for 60 mins
[4] = Tmax in Balb/c mouse at 10 mg/kg, po administered as single dose measured upto 24 hrs by LC-MS/MS analysis; format: ADME, organism-based; settings: in vivo
[5] = AUC (0 to infinity) in Balb/c mouse at 2 mg/kg, iv administered as single dose measured up to 24 hrs by LC-MS/MS analysis; format: ADME, organism-based; design: route intravenous, dose 2 mg/kg, time <=24; settings: in vivo

Histone deacetylase 3/Nuclear receptor corepressor 2 (HDAC3/NCoR2), sequence (O15379 whole entry): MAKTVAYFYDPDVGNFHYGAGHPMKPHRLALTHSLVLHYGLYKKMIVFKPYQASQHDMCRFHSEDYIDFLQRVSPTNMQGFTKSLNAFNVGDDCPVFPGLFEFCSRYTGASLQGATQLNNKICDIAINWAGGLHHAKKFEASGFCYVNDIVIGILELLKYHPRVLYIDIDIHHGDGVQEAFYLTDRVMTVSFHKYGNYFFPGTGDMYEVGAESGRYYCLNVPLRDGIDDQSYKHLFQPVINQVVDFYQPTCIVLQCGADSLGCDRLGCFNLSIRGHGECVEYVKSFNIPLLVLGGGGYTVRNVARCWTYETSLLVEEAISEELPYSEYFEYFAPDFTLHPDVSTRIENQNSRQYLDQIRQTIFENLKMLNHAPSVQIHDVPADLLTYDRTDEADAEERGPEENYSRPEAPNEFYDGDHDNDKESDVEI
Histone deacetylase 3/Nuclear receptor corepressor 2 (HDAC3/NCoR2), sequence (Q9Y618 whole entry, further chain): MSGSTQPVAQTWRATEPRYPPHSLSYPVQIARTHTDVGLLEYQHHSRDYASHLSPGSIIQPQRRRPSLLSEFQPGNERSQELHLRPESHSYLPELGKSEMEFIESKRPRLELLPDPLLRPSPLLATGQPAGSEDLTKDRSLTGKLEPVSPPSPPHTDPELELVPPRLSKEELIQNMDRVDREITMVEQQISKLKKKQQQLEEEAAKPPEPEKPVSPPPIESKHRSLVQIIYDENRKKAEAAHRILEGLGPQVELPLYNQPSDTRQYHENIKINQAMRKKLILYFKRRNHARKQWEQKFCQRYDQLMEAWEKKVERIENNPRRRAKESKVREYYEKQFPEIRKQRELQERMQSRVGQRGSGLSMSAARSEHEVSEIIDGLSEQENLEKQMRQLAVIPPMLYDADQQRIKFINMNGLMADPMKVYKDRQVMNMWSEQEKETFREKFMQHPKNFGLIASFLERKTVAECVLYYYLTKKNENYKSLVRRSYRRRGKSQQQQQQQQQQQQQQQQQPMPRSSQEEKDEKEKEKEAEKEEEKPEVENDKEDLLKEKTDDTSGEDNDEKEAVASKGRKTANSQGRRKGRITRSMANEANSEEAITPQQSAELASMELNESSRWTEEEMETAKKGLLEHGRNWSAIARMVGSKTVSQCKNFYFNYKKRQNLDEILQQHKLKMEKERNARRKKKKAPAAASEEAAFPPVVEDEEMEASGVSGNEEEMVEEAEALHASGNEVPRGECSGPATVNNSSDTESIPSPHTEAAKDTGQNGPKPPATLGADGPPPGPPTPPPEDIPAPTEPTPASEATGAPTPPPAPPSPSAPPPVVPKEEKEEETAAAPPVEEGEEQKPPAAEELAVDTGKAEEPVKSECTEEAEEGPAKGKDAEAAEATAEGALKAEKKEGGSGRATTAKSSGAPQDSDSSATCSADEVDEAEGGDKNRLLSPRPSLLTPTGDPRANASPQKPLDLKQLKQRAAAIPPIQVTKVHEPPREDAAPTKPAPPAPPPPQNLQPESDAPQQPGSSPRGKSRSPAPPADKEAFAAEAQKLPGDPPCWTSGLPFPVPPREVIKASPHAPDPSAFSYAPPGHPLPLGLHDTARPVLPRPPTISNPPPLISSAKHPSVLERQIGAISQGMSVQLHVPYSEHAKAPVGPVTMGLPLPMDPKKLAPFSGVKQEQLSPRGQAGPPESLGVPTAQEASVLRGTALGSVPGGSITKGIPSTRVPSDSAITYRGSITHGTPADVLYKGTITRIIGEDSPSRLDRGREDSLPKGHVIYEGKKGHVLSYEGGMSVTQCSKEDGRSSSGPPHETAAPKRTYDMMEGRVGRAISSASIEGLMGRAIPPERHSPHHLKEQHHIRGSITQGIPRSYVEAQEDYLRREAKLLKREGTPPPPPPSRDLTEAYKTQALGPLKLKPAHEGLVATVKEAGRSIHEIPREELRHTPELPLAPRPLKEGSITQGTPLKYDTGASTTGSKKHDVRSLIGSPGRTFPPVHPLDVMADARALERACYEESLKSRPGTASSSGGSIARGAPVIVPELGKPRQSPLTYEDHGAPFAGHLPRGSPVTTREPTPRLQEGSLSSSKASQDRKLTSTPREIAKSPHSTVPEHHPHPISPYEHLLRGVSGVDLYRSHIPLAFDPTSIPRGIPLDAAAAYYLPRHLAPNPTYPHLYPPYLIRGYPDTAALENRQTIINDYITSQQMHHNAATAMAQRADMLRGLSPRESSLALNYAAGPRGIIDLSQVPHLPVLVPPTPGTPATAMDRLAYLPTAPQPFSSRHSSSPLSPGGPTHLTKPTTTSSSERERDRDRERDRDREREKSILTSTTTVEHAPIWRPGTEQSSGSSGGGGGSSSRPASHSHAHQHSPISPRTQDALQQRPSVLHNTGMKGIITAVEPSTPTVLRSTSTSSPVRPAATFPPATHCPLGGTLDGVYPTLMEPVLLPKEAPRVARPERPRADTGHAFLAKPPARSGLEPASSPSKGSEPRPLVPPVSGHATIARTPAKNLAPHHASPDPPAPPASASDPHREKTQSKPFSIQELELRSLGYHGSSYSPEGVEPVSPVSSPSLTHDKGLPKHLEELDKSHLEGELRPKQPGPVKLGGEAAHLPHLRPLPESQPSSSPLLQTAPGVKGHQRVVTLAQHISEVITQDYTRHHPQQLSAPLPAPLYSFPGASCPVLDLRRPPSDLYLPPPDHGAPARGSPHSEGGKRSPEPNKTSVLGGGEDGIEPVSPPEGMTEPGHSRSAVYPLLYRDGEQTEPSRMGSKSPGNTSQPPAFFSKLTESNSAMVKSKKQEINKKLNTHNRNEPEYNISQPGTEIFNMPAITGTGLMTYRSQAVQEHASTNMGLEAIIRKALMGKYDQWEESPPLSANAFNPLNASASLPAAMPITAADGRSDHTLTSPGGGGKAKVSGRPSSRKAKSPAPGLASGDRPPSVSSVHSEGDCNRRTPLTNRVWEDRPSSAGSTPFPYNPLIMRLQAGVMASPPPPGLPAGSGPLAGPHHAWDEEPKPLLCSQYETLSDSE

SMILES: Cl.O=C(NO)c1cnc(N2CCC3(CCN(Cc4c[nH]c5ccccc45)C3)CC2)nc1
- Activity (Plasmodium falciparum [1]): Active
- inhibition (Plasmodium falciparum [2]): Active
- IC50 [3]: 3 nM
- Tmax [4]: 15 min
- AUC(0-inf) [5]: 119 ng·h/mL
